Measured values from patent US12139481B2, “Compositions comprising macrocycle derivatives incorporating bridged macrocycles and methods of producing and using same” (Southwestern Oklahoma State University, priority 2015, dated 2024).

Legend:
[1] = tested on: C. glabrata ATCC 90030; experiment: Antifungal broth dilution assay against C. glabrata (modified CLSI); assay type: cell-based, Candida glabrata; settings: for C. glabrata IC50 / IC50: in vitro; for IC50: converted with molecular weight; for X more potent than Amphotericin B: molar IC50 ratio versus amphotericin B
Method in brief: (§1)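 Growth read by optical density at 530 nm, duplicate wells, 1% final DMSO. Staphylococcus spp.: Mueller-Hinton pH 7.3, 5.0×10^5 CFU/ml, 35 °C for 16-20 h; Candida spp.: RPMI/dextrose/glutamine/MOPS pH 6.0, 1.5×10^3 CFU/ml, 35 °C for 46-50 h. Reported values are 50% inhibition versus controls, no-growth MIC, and killing MFC/MBC.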

[2] = tested on: Cryptococcus neoformans ATCC 90113; experiment: Antimicrobial microdilution assay against Cryptococcus neoformans (modified CLSI/NCCLS, optical density); assay type: cell-based; settings: for X more potent than Amphotericin B: C. neoformans, ratio of molar IC50 to Amphotericin B; for C. neoformans IC50 / IC50: in vitro, C. neoformans ATCC 90113; for IC50: read-out: C. neoformans IC50 (mol/L)
Method in brief: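 Fungicidal endpoint taken by subculturing 5 μL from each clear well onto agar, MFC being the lowest concentration with no regrowth. Duplicate wells of serially diluted compound (20% DMSO/saline) in RPMI pH 6.0, read at 630 nm pre- and post-incubation, under modified CLSI methods. IC50 means 50% growth inhibition against controls.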

[3] = tested on: S. mansoni newly transformed schistosomula (NTS); experiment: In vitro testing on Schistosoma mansoni newly transformed schistosomula (NTS), viability score; assay type: cell-based; settings: 72 h
Method in brief: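 Mechanically transformed S. mansoni (Liberian strain) NTS, cultured overnight, exposed at 100 per well to compound (from 10 mM DMSO stock; ≤1% DMSO controls) at 37 °C, 5% CO2 for 72 h. Viability scored microscopically from 3 (normal activity, intact tegument) to 0 (dead, granulated).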

[4] = tested on: C. krusei ATCC 6258; experiment: Antifungal broth dilution assay against C. krusei (modified CLSI); assay type: cell-based, Candida krusei; settings: for X more potent than Amphotericin B: C. krusei, ratio of molar IC50 to amphotericin B; for C. krusei IC50 / IC50: in vitro; for IC50: read-out: C. krusei IC50 (mol/L)
Method in brief: as §1

[5] = tested on: L. donovani promastigotes; experiment: Antileishmanial Alamar Blue assay on promastigotes; assay type: cell-based, Leishmania donovani; settings: for X more potent than Pentamidine: L. donovani, ratio of molar IC50 to Pentamidine; for L. donovani IC50 / IC50: promastigotes, 48 hours, Alamar Blue; for IC50: read-out: L. donavani IC50
Method in brief: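 Alamar Blue fluorescence (544/590 nm) quantified growth after 48 hours at 26° C of compound-treated promastigotes. Parasites were seeded at 5×10^5/mL in RPMI 1640 plus 10% FCS; drug range 50-3.1 μg/mL, and IC50 derived by plotting percent growth against test concentration.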

[6] = tested on: Plasmodium falciparum D6 clone (Sierra Leon, chloroquine-sensitive); experiment: In vitro antimalarial assay, chloroquine-sensitive D6 clone; assay type: cell-based; settings: D6 clone; for IC50: converted with molecular weight, read-out: P. falciparum D6 IC50; for X more potent than chloroquine: molar IC50 ratio versus chloroquine
Procedure: (§2) The compounds were assayed for in vitro antimalarial activity against the W2 clone and D6 clone of the pathogenic Plasmodium falciparum. The strains of P. falciparum were obtained from the Division of Experimental Therapeutics, Walter Reed Army Institute of Research, Washington D.C. Strains of Sierra Leon D6 and Indochina W2 are chloroquine-sensitive and chloroquine-resistant, respectively. The parasite was grown in type A human RBCs and, two strains subcultured daily with fresh medium and blood cells. On the day of the assay, a suspension of infected blood cells (2% parasitemia and 2% hematocrit) was prepared using type A human red blood cells. Assays were performed by standard 96-well flat-bottomed microplate methods and done in duplicate at different concentrations. IC50 values were obtained from the dose curves. Artemisinin and chloroquine were included in each assay as the drug controls, and DMSO was used as vehicle control. The whole protocol was developed based on the published method of Makler. The cytotoxicity assays were also performed in parallel against the Vero cells, and the selectivity index was measured. A selectivity index of >9 was considered to indicate a lead for further development of antimalarial drug.

[7] = tested on: Plasmodium falciparum W2 clone (Indochina, chloroquine-resistant); experiment: In vitro antimalarial assay, chloroquine-resistant W2 clone; assay type: cell-based; settings: W2 clone; for IC50: converted with molecular weight, read-out: P. falciparum W2 IC50; for X more potent than chloroquine: molar IC50 ratio versus chloroquine
Procedure: as §2

SMILES: CC(=O)[O-].CC(=O)[O-].CC(=O)[O-].F[P-](F)(F)(F)(F)F.F[P-](F)(F)(F)(F)F.F[P-](F)(F)(F)(F)F.[Co+2].[Co+2].[Co+2].c1c(CN2CCNCCN3CCN(CC3)CC2)cc(CN2CCNCCN3CCN(CC3)CC2)cc1CN1CCNCCN2CCN(CC2)CC1 [CDG021, [Co3(tris-SB-Cyclens)(OAc)3][PF6]3]
- times more potent than AMB [1]: 2.66
- C. glabrata IC50 [1]: 0.800 µg/mL
- IC50 [1]: 0.534 µM
- X more potent than Amphotericin B [1]: 2.66
- X more potent than Amphotericin B [2]: 0.45
- C. neoformans IC50 [2]: ≤ 0.800 µg/mL
- IC50 [2]: 0.534 µM
- Effect at 72 h (%) ([3]; NTS S. mansoni, 33 μM): 11.71%
- X more potent than Amphotericin B [4]: 0.53
- C. krusei IC50 [4]: 4.200 µg/mL
- IC50 [4]: 2.8 µM

SMILES: CC(=O)[O-].CC(=O)[O-].CC(=O)[O-].CN1CCN2CCN(CC1)CCN(Cc1cc(CN3CCN4CCN(C)CCN(CC4)CC3)cc(CN3CCN4CCN(C)CCN(CC4)CC3)c1)CC2.F[P-](F)(F)(F)(F)F.F[P-](F)(F)(F)(F)F.F[P-](F)(F)(F)(F)F.F[P-](F)(F)(F)(F)F.F[P-](F)(F)(F)(F)F.F[P-](F)(F)(F)(F)F.[Co+3].[Co+3].[Co+3] [BNS20, [Co3(tris-CB-Cyclens)(OAc)3][PF6]6]
- C. glabrata IC50 [1]: 4.720 µg/mL
- IC50 [1]: 2.39 µM
- X more potent than Amphotericin B [1]: 0.59
- X more potent than Amphotericin B [2]: 0.47
- C. neoformans IC50 [2]: 1.000 µg/mL
- IC50 [2]: 0.506 µM
- Effect at 72 h (%) ([3]; NTS S. mansoni, 33 μM): 18.02%
- C. krusei IC50 [4]: 0.980 µg/mL
- IC50 [4]: 0.496 µM

SMILES: CN1CCN2CCN(CC1)CCN(Cc1cc(CN3CCN4CCN(C)CCN(CC4)CC3)cc(CN3CCN4CCN(C)CCN(CC4)CC3)c1)CC2 [BNS017, tris-CB-cyclens]
- X more potent than Pentamidine [5]: 0.16
- L. donovani IC50 [5]: 25.46 µg/mL
- IC50 [5]: 33.9 µM
- X more potent than Amphotericin B [2]: 2.56
- C. neoformans IC50 [2]: 0.070 µg/mL
- IC50 [2]: 0.0932 µM
- Effect at 72 h (%) ([3]; NTS S. mansoni, 33 μM): 0.00%
- X more potent than Amphotericin B [4]: 0.19
- C. krusei IC50 [4]: 5.850 µg/mL
- IC50 [4]: 7.79 µM

SMILES: CC(=O)[O-].CC(=O)[O-].CN1CCCN2CCN(CCCN(Cc3ccc(CN4CCCN5CCN(C)CCCN(CC5)CC4)cc3)CC2)CC1.F[P-](F)(F)(F)(F)F.F[P-](F)(F)(F)(F)F.[Cu+2].[Cu+2] [TJH384A, [Cu2(p-CB-cyclams)(OAc)2](PF6)2]
- C. glabrata IC50 [1]: 14.590 µg/mL
- IC50 [1]: 13.1 µM
- X more potent than Amphotericin B [1]: 0.11
- X more potent than Amphotericin B [2]: 0.38
- C. neoformans IC50 [2]: 0.700 µg/mL
- IC50 [2]: 0.626 µM
- Effect at 72 h (%) ([3]; NTS S. mansoni, 33 μM): 5.41%
- X more potent than Amphotericin B [4]: 0.25
- C. krusei IC50 [4]: 6.760 µg/mL
- IC50 [4]: 6.05 µM

SMILES: CC(=O)[O-].F[P-](F)(F)(F)(F)F.[Ni+2].c1ccc(CN2CCCN3CCN(CCCN(Cc4ccccc4)CC3)CC2)cc1 [TC09, [Ni(Bn2Bcyclam)(OAc)]PF6]
- P. falciparum D6 IC50 [6]: 0.552 µg/mL
- IC50 [6]: 0.825 µM
- X more potent than chloroquine [6]: 0.04
- P. falciparum W2 IC50 [7]: 0.8876 µg/mL
- IC50 [7]: 1.33 µM
- X more potent than chloroquine [7]: 0.51
- X more potent than Pentamidine [5]: 0.55
- L. donovani IC50 [5]: 6.51 µg/mL
- IC50 [5]: 9.73 µM
- Effect at 72 h (%) ([3]; NTS S. mansoni, 33 μM): 43.24%
- X more potent than Amphotericin B [4]: 0.22
- C. krusei IC50 [4]: 4.520 µg/mL
- IC50 [4]: 6.75 µM

SMILES: CC(=O)[O-].F[P-](F)(F)(F)(F)F.[Cu+2].c1ccc(CN2CCCN3CCN(CCCN(Cc4ccccc4)CC3)CC2)cc1 [RM37, [Cu(Bn2Bcyclam)(OAc)]PF6]
- P. falciparum D6 IC50 [6]: 0.2855 µg/mL
- IC50 [6]: 0.423 µM
- X more potent than chloroquine [6]: 0.09
- P. falciparum W2 IC50 [7]: 0.5451 µg/mL
- IC50 [7]: 0.809 µM
- X more potent than chloroquine [7]: 0.84
- X more potent than Pentamidine [5]: 0.58
- L. donovani IC50 [5]: 6.17 µg/mL
- IC50 [5]: 9.15 µM
- Effect at 72 h (%) ([3]; NTS S. mansoni at 10 μM): 24.14%
- Effect at 72 h (%) ([3]; NTS S. mansoni, 33 μM): 100.00%
